From patent publication US10947196B2, “Beta adrenergic agonist and methods of using the same” (CURASEN THERAPEUTICS, INC., priority 2019, dated 2021)
Read-outs that look alike come from different tables or passages of the source.

Tests used:
Assay type in all cases: cell-based
β1-adrenergic receptor = β1-adrenergic receptor (Homo sapiens (Human), UniProt P08588); assay: cAMP Gs dynamic HTRF assay, β1 expressing CHO cells; details: B1-AR
How it was run: (§1)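 Intracellular cAMP quantified by Eu-donor/d2-acceptor HTRF after 30 min compound exposure at 37° C in stimulation buffer with IBMX. Concentrations ran 10 μM top, 5-fold steps, 10 points. Cell lines: 1321N1 astrocytoma and CHO expressing β1 or β2; EC50 via four-parameter fit, relative efficacy against isoproterenol.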

β2 adrenergic receptor = β2 adrenergic receptor (Homo sapiens (Human), UniProt P07550); assay: cAMP Gs dynamic HTRF assay, β2 expressing CHO cells; details: B2-AR
How it was run: as §1

[1] = target: β2 adrenergic receptors in human astrocytoma cells (1321N1) (Homo sapiens (Human), UniProt P07550); assay: cAMP HTRF assay in human astrocytoma cells (1321N1)
Procedure: cAMP homogeneous time-resolved fluorescence (HTRF). Compound efficacy was determined using the cAMP Gs dynamic HTRF assay (Cisbio, catalog #62AM4PEC) largely following the manufacturer's instructions, also detailed below.
Compound preparation. […] Standard serial dilution curves were 10-point, 5-fold dilutions starting from a highest concentration of 10 μM. […] Assay plates were centrifuged at 500×g for 10 seconds. Compounds and IBMX were prepared at 2× final dose to compensate for addition of cells.
Cell preparation. 1× stimulation buffer, washing PBS (Dulbecco's phosphate-buffered saline, −Mg −Ca; Caisson Labs, catalog #PBL01), assay PBS (Dulbecco's phosphate-buffered saline, +Mg, +Ca; Caisson Labs, catalog #PBL02) and Versene (0.02% EDTA disodium salt solution in PBS without calcium or magnesium; Caisson Labs, catalog #EDL01) were pre-warmed to 37° C. Cells expressing beta-adrenergic receptor were washed in washing PBS to remove growth medium and then released from the surface by incubating with Versene for 5-10 minutes at 37° C. Cells were harvested using assay PBS, counted manually by hemocytometer or by an automated cell counter, pelleted by centrifugation (200×g, 5 minutes) and resuspended in 37° C. 1× stimulation buffer to a final density of 1.5×10^6 cells/mL. 5 μL of the suspended cell solution (7500 cell total) were added to all wells of the 384 well assay plate, the assay plate was covered with an Axygen® plate seal (Corning PCR-SP) and incubated in a humidified 37° C. environment supplemented with 5% CO2 for 30 minutes.
HTRF reagent addition, reading and data analysis. After 30 minutes of cell stimulation with test compound, the assay plates were centrifuged at 500×g for 10 seconds, and incubation was stopped with the addition of 5 μL cAMP-D2 acceptor, diluted 1:21 in detection and lysis buffer 2 (Cisbio 62CL2FDF) was added to all cells. Subsequently, 5 μL Anti-cAMP-Eu Donor, diluted 1:21 in detection and lysis buffer 2, was added to cells. Plates were sealed and reactions gently ‘vortexed’ at 900 rpm on a Heidolph Titramax 1000 for at least 30 minutes at room temperature. Plates were centrifuged again at 500×g for 10 seconds, and HTRF was measured using a Tecan Spark plate reader at 50 flashes per well. […] Potency estimates (EC50) were derived from the four-parameter nonlinear regression of the concentration-effect curve and an estimate of relative efficacy was determined by comparing the magnitude of the test compound HTRF signal window (min−max dose) with the signal window of the full agonist control, isoproterenol.

[2] = CHO-K1 (HitHunter), read-out: Average pEC50 [Receptor subtype: B1-AR, Cell type: CHO-K1 (HitHunter)] (converted)
[3] = CHO-K1 (HitHunter), read-out: Average pEC50 [Receptor subtype: B2-AR, Cell type: CHO-K1 (HitHunter)] (converted)
[4] = Endogenous receptor, 1321N1 cells, read-out: Average pEC50 [Receptor subtype: Endogenous, Cell type: 1321N1] (converted)
[5] = Average pEC50 [Receptor subtype: B1-AR, Cell type: CHO-K1 (HitHunter)], CHO-K1 (HitHunter)
[6] = Average pEC50 [Receptor subtype: B2-AR, Cell type: CHO-K1 (HitHunter)], CHO-K1 (HitHunter)
[7] = CHO-K cells, read-out: Average EC50 [Receptor subtype: B1-AR, Cell type: CHO-K]
[8] = CHO-K cells, read-out: Average EC50 [Receptor subtype: B2-AR, Cell type: CHO-K]

Chain of β2 adrenergic receptor (P07550 whole entry, species assumed): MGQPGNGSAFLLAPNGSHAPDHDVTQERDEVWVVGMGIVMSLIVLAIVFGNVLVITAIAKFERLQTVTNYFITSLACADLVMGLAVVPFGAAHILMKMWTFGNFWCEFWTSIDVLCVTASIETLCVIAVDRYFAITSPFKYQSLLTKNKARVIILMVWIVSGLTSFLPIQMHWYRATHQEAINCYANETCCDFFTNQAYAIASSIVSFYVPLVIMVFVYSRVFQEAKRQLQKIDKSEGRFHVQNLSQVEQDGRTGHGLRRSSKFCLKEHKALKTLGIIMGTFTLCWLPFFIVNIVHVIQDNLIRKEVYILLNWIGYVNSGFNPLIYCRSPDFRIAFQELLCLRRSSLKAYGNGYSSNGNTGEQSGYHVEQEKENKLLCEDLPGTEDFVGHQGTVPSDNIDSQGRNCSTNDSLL
Chain of β2 adrenergic receptors in human astrocytoma cells (1321N1) (P07550 whole entry): as the sequence (P07550 whole entry, species assumed) above
Chain of β1-adrenergic receptor (P08588 whole entry, species assumed): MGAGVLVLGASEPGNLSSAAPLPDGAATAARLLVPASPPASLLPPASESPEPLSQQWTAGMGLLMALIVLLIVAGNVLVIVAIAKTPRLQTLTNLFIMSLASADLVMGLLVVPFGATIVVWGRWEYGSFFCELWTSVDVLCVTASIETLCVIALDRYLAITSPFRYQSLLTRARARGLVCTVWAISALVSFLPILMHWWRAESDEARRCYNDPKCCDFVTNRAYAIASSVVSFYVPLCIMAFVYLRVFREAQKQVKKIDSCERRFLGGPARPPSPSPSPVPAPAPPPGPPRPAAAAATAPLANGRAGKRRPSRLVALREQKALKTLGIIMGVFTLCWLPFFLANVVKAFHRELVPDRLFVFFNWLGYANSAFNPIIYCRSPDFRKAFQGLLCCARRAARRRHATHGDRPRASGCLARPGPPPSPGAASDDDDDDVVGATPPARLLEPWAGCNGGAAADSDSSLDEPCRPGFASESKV

SMILES | EC50 (β1-adrenergic receptor; [2]) [nM] | EC50 (β2 adrenergic receptor; [3]) [nM] | EC50 (β1-adrenergic receptor; [7]) [nM] | EC50 (β2 adrenergic receptor; [8]) [nM] | also measured
CC(C)(C)NC[C@@H](O)c1ccnc(C#N)c1 [Compound 03-111] | > 1000 | 10 to 100 |  |  | EC50 [1, 4]: 100 to 1000 nM
CC(C)(C)NC[C@H](O)c1cccc(NC2CC2)n1 [Compound 03-189] | 10 to 100 | < 10 |  |  | EC50 [1, 4]: 10 to 100 nM
COc1ccc(C[C@@H](C)NC[C@H](O)c2cccnc2C2=CCCC2)cc1 [Compound 03-63] |  |  |  |  | EC50 (β1-adrenergic receptor; [5]): > 1000 nM; EC50 (β2 adrenergic receptor; [6]): 100 to 1000 nM; EC50 [1]: > 1000 nM
CC(C)(C)NC[C@@H](O)c1cccc(-n2ccnc2)n1 [Compound 03-228] | 10 to 100 | < 10 |  |  | EC50 [1, 4]: < 10 nM
Cc1ccc([C@@H](O)CNC(C)(C)C)c(C)n1 [Compound 03-67] | 100 to 1000 | < 10 |  |  | EC50 [1, 4]: 10 to 100 nM
CC(C)(C)NC[C@H](O)c1cccnc1OC(F)(F)F [Compound 03-70] | 100 to 1000 | 10 to 100 |  |  | EC50 [1, 4]: 10 to 100 nM
CC(C)(C)NC[C@H](O)c1cccc(Nc2ccccc2)n1 [Compound 03-193] | < 10 | < 10 |  |  | EC50 [1, 4]: < 10 nM
CC(C)(C)NC[C@H](O)c1cccnc1C1CC1 [Compound 03-54] | 100 to 1000 | 10 to 100 | 100 to 1000 | 10 to 100 | Average pEC50 [Receptor subtype: Endogenous; Cell type: 1321N1] ([1]; Endogenous receptor, 1321N1 cells): C (C = <7-6); EC50 ([1]; Endogenous receptor, 1321N1 cells, read-out: Average EC50 [Receptor subtype: Endogenous, Cell type: 1321N1]): 100 to 1000 nM
COc1ccc(C[C@@H](C)NC[C@H](O)c2cccnc2C2CCCC2)cc1 [Compound 03-64] |  |  |  |  | EC50 (β1-adrenergic receptor; [5]): > 1000 nM; EC50 (β2 adrenergic receptor; [6]): 100 to 1000 nM; EC50 [1]: 100 to 1000 nM
CC(C)(C)NC[C@H](O)c1cccc(-c2ccccc2)n1 [Compound 03-28] | 10 to 100 | < 10 | 10 to 100 | < 10 | 
COc1ccc(C[C@@H](C)NC[C@@H](O)c2cccc(C(F)(F)F)n2)cc1 [Compound 03-16] | 100 to 1000 | 10 to 100 | 100 to 1000 | 10 to 100 | 
CC(C)(C)NC[C@H](O)c1cccc(N2CCOCC2)n1 [Compound 03-157] |  | < 10 | < 10 | < 10 | Average pEC50 [Receptor subtype: B1-AR; Cell type: CHO-K1 (HitHunter)] (β1-adrenergic receptor; CHO-K1 (HitHunter)): A (A > 8)
CC(C)(C)NC[C@H](O)c1cccnc1-n1ccnn1 [Compound 03-241] | > 1000 | > 1000 |  |  | 
CC(C)(C)NC[C@@H](O)c1cccc(-n2cccc2)n1 [Compound 03-124] |  | 10 to 100 | 100 to 1000 | 10 to 100 | Average pEC50 [Receptor subtype: B1-AR; Cell type: CHO-K1 (HitHunter)] (β1-adrenergic receptor; CHO-K1 (HitHunter)): C (C = <7-6)
CC(C)Nc1cccc([C@H](O)CNC(C)(C)C)n1 [Compound 03-232] | 10 to 100 | 10 to 100 |  |  | 
COc1ccc(C[C@@H](C)NC[C@H](O)c2ccc(C3CC3)nc2C)cc1 [Compound 03-269] |  |  |  |  | Average pEC50 [Receptor subtype: B1-AR; Cell type: CHO-K1 (HitHunter)] (β1-adrenergic receptor; CHO-K1 (HitHunter)): B (B = 8-7); Average pEC50 [Receptor subtype: B2-AR; Cell type: CHO-K1 (HitHunter)] (β2 adrenergic receptor; CHO-K1 (HitHunter)): A (A > 8)
CC(C)(C)NC[C@@H](O)c1ccc2cccc(C(F)(F)F)c2n1 [Compound 03-164] |  |  | 100 to 1000 | < 10 | 
CC(C)(C)NC[C@@H](O)c1cccc(C(F)(F)F)n1 [Compound 03-43] | > 1000 | 100 to 1000 | > 1000 | > 1000 | 
Cc1cccc(-c2cccc([C@H](O)CNC(C)(C)C)n2)c1 [Compound 03-148] | 100 to 1000 | 100 to 1000 | 100 to 1000 | 100 to 1000 | 

SMILES | EC50 (β1-adrenergic receptor; [2]) [nM] | EC50 (β2 adrenergic receptor; [3]) [nM] | EC50 (β1-adrenergic receptor; [7]) [nM] | EC50 (β2 adrenergic receptor; [8]) [nM] | also measured
CC(C)(C)NC[C@H](O)c1cccc(OC(C)(C)C)n1 [Compound 03-196] | 10 to 100 | < 10 |  |  | 
CCNc1cccc([C@@H](O)CNC(C)(C)C)n1 [Compound 03-262] | 10 to 100 | < 10 |  |  | 
CC(C)(C)NC[C@@H](O)c1cccc(NC2CC2)n1 [Compound 03-250] | > 1000 | 100 to 1000 |  |  | 
CNCc1cccc([C@@H](O)CN[C@H](C)Cc2ccc(OC)cc2)n1 [Compound 03-254] | > 1000 | 100 to 1000 |  |  | 
COc1ccc(C[C@@H](C)NC[C@H](O)c2cc(F)cnc2C)cc1 [Compound 03-260] |  |  |  |  | EC50 (β1-adrenergic receptor; [5]): > 1000 nM; EC50 (β2 adrenergic receptor; [6]): < 10 nM
CC(C)(C)NC[C@@H](O)c1cccc(-n2cccn2)n1 [Compound 03-225] | 100 to 1000 | 100 to 1000 |  |  | 
CNc1ccc([C@@H](O)CNC(C)(C)C)c(C)n1 [Compound 03-276] | 100 to 1000 | 10 to 100 |  |  | 
Cc1ncc(F)cc1[C@@H](O)CNC(C)(C)C [Compound 03-258] | 100 to 1000 | 10 to 100 |  |  | 
CC(C)(C)NC[C@H](O)c1cccnc1N1CCCC1 [Compound 03-60] |  | > 1000 | > 1000 | > 1000 | Average pEC50 [Receptor subtype: B1-AR; Cell type: CHO-K1 (HitHunter)] (β1-adrenergic receptor; CHO-K1 (HitHunter)): D (D < 6)
CC(C)(C)NC[C@@H](O)c1nc(C(F)(F)F)cc2ccccc12 [Compound 03-172] |  |  | > 1000 | > 1000 | 
Cc1ncc([C@@H](O)CNC(C)(C)C)c(C)n1 [Compound 03-261] | > 1000 | 100 to 1000 |  |  | 
CC(C)(C)NCC(O)c1cccnc1Cl (centres unmarked) [Compound 03-114] | 100 to 1000 | 10 to 100 | 100 to 1000 | 10 to 100 | 
CC(C)(C)NC[C@@H](O)c1ccnc(C(F)(F)F)c1 [Compound 03-211] | 100 to 1000 | 100 to 1000 |  |  | 
CC(C)(C)NC[C@H](O)c1cc(C(F)(F)F)cnc1C1=CCCC1 [Compound 03-92] | > 1000 | > 1000 |  |  | 
CC(C)(C)NC[C@H](O)c1cccc(C2(C#N)CC2)n1 [Compound 03-206] | < 10 | < 10 |  |  | 
CN(C)C(=O)c1cccc([C@@H](O)CNC(C)(C)C)n1 [Compound 03-7] |  | 100 to 1000 | > 1000 | 100 to 1000 | Average pEC50 [Receptor subtype: B1-AR; Cell type: CHO-K1 (HitHunter)] (β1-adrenergic receptor; CHO-K1 (HitHunter)): D (D < 6)
CC(C)(C)NC[C@H](O)c1ccc(C#N)cn1 [Compound 03-212] | > 1000 | 100 to 1000 |  |  | 
CNc1ccc([C@@H](O)CN[C@H](C)Cc2ccc(OC)cc2)c(C)n1 [Compound 03-277] |  |  |  |  | EC50 (β1-adrenergic receptor; [5]): > 1000 nM; EC50 (β2 adrenergic receptor; [6]): < 10 nM
